In US20230302014A1, “USES OF GLUCOCORTICOID RECEPTOR (GR) ANTAGONIST AND ANDROGEN RECEPTOR (AR) DEGRADER COMBINATIONS” (ORIC Pharmaceuticals, Inc., priority 2020, published 2023):

How the values were obtained:
Type in all cases: cell-based, Human
AR protein = test: Western blot of AR protein after dose-dependent AR degrader treatment; settings: LNCaP and CWR22PC cells, 3 days, increasing doses 3-1000 nM
Protocol: Cell pellets were washed with PBS and lysed in RIPA buffer (VWR#AAJ63306-AK) supplemented with proteasome inhibitor cocktails (VWR #AAJ65789-LQ). Resuspended cells were briefly sonicated for ~30 seconds using a probe sonicator and incubated on ice for 40 minutes, followed with centrifugation at 12,000 rpm for 15 minutes at 4° C. to collect the supernatant. Protein concentration was quantitated using Quick Start™ Bradford Protein Assay Kit (Bio-Rad #5000201).
Proteins were transferred to nitrocellulose membranes using iBlot 2 Dry Blotting System (ThermoFisher#IB210021) at 20 V for 10 minutes.

GR protein = test: Western blot of GR protein after dose-dependent or time-dependent AR degrader treatment; settings: LNCaP and CWR22PC cells, 3 days, increasing doses 3-1000 nM
Protocol: (§1) LNCaP and CWR22PC cells were plated in seven 15-cm dishes (Corning#353025) at a density of 5 million cells per dish in RPMI-1640 media supplemented with 10% charcoal-stripped serum (CSS; OmegaScientific#FB4). After 24 hours, the cells were treated with 0, 3, 10, 30, 100, 300 and 1000 nM of ARD1 or ARD2 and incubated at 37° C. for 3 days. The cells were then trypsinized (Corning#25-053-CI) and harvested for transcript (RT-qPCR) and protein (western blot) analysis.
5 million of LNCaP and CWR22PC cells per dish were plated in five 15-cm dishes in 20 mL of RPMI-1640 media supplemented with 10% charcoal-stripped serum (CSS) and cultured at 37° C. for 24 hours. Cells were treated with 30 nM of dexamethasone and with 100 nM of ARD1 or ARD2 and maintained at 37° C. until harvest. On Day 0, 6, 10, 13, and 15, cells were trypsinized, cell pellets were washed with 1XPBS and then divided for mRNA and protein preparation.
Cell pellets were washed with PBS and lysed in RIPA buffer (VWR#AAJ63306-AK) supplemented with […] (VWR #AAJ65789-LQ). Resuspended cells were briefly sonicated for ~30 seconds using a probe sonicator and incubated on ice for 40 minutes, followed with centrifugation at 12,000 rpm for 15 minutes at 4° C. to collect the supernatant. Protein concentration was quantitated using Quick Start™ Bradford Protein Assay Kit (Bio-Rad #5000201). […]

AR mRNA = test: RT-qPCR of AR mRNA after dose-dependent AR degrader treatment; settings: LNCaP and CWR22PC cells, 3 days, increasing doses 3-1000 nM
Protocol: as §1
Adherent cells or cell pellets harvested for mRNA analysis were first washed once with PBS and then resuspended in 600 µL of RLT lysis buffer (Qiagen Inc.) supplemented with 1% of betamercaptoethanol. RNA was extracted by QIAcube using the RNeasy Mini QIAcube kit (Qiagen#74116) according to manufacturer’s instructions. The extracted RNA samples were then quantified using a Nanodrop 8000 Spectrophotometer. RT-qPCR reactions were set up in triplicate using 3 µL of 3 ng/ µL of RNA in 7 µL of pre-mixed SensiFAST™ SYBR No-ROX One-Step Kit reagents (BIOLINE# BIO-98005). The RT-qPCR reactions were run on a Bio-Rad CFX384 Real-Time PCR System and data was plotted with GraphPad Prism 8 software.
LNCaP and CWR22PC cells were plated in seven 10-cm dishes (Corning#353003) at a density of 2 million cells per dish in RPMI-1640 media supplemented with 10% charcoal-stripped serum (CSS; OmegaScientific#FB4). […]

[1] = test system: AR target genes KLK3, KLK4, NKX3.1, FKBP5; test: Target gene assay (RT-qPCR, R1881-induced AR target genes); settings: 100 pM R1881; for AR target gene FKBP5 induced by R1881 / AR target gene KLK3 induced by R1881 / AR target gene KLK4 induced by R1881 / AR target gene NKX3.1 induced by R1881: 24 hours post treatment
Protocol: (§2) 10,000 LNCaP and CWR22PC cells per well were plated in triplicate in poly-lysine coated 96-well plates (ThermoFisher#152039) in 200 µL of RPMI-1640 media supplemented with 10% charcoal-stripped serum. 24 hours later, cells were treated with 100 pM of R1881 and 8-point dilution for enzalutamide, ARD1 or ARD2 with concentrations ranging from 1 µM to 0.46 nM. After incubation at 37° C. for 24 hours, media was removed, and cells were washed once with PBS. 55 µL per well of iScript RT-qPCR sample preparation reagent (Bio-Rad #1708898) was added and incubated for 2 minutes before lysate was collected for mRNA analysis. RT-qPCR was set up in triplicate using 3 µL of lysate plus 7 µL of pre-mixed SensiFAST™ SYBR No-ROX One-Step Kit reagents (BIOLINE, Cat# BIO-98005) per reaction. The RT-qPCR reactions were run on a Bio-Rad CFX384 Real-Time PCR System and data was plotted with GraphPad Prism 8 software.
as §2, with “15,000” for “10,000”, “24 hours later, cells were treated with 100 pM of R1881 and 8-point dilution for enzalutamide, ARD1 or ARD2 with concentrations ranging from 1 µM to 0.46 nM.” left out, “75” for “55”

N#Cc1ccc(O[C@H]2CC[C@H](NC(=O)c3ccc(N4CCC(CN5CCN(c6cc7c(cc6F)C(=O)N(C6CCC(=O)NC6=O)C7=O)CC5)CC4)nn3)CC2)cc1Cl (stereo partly drawn) [ARV-110, N-[trans-4-(3-chloro-4-cyanophenoxy)cyclohexyl]-6-[4-[[4-[2-(2,6-dioxo-3-piperidinyl)-6-fluoro-2,3-dihydro-1,3-dioxo-1H-isoindol-5-yl]-1-piperazinyl]methyl]-1-piperidinyl]-3-pyridazinecarboxamide]
AR protein levels (AR protein): degrades AR protein in a dose-dependent manner | GR protein levels (GR protein): minimally impacting | AR transcript levels (AR mRNA): minimally impacting | AR target gene FKBP5 induced by R1881 ([1]; CWR22PC cells): inhibit | AR target gene KLK3 induced by R1881 ([1]; CWR22PC cells): inhibit | AR target gene KLK4 induced by R1881 ([1]; CWR22PC cells): inhibit | AR target gene NKX3.1 induced by R1881 ([1]; CWR22PC cells): inhibit | expression of AR target genes including KLK3, KLK4, NKX3.1, and FKBP5 ([1]; LNCaP and CWR22PC cells, 24 hours, 1 µM to 0.46 nM, potency compared with enzalutamide): in a dose-dependent manner with greater potency than AR antagonist enzalutamide | AR target gene FKBP5 induced by R1881 ([1]; LNCaP cells): inhibit | AR target gene KLK3 induced by R1881 ([1]; LNCaP cells): inhibit | AR target gene KLK4 induced by R1881 ([1]; LNCaP cells): inhibit | AR target gene NKX3.1 induced by R1881 ([1]; LNCaP cells): inhibit
